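Values below derive from 48-hour exposures of cells grown in 96-well plates, with endpoints linearly interpolated between the two concentrations bracketing the appropriate inhibition level. Here, GI50 denotes the concentration required for 50% inhibition of growth.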 Calls of active or inactive are those of the source. Rule as the data show it: active = GI50 up to about 1.1 µM and inactive = higher.
How the values were obtained:
Test in all cases: NCI-60 cell line screen, 48 h
SW-620 = tested on: SW-620
DMS-114 = tested on: DMS-114
SR = tested on: SR
OVCAR-3 = tested on: OVCAR-3
SF-539 = tested on: SF-539
SNB-78 = tested on: SNB-78
786-0 = tested on: 786-0
SK-MEL-5 = tested on: SK-MEL-5
EKVX = tested on: EKVX
OVCAR-4 = tested on: OVCAR-4
KM-20L2 = tested on: KM-20L2
CCRF-CEM = tested on: CCRF-CEM
KM12 = tested on: KM12
SNB-75 = tested on: SNB-75
OVCAR-8 = tested on: OVCAR-8
HT-29 = tested on: HT-29
UO-31 = tested on: UO-31
HOP-18 = tested on: HOP-18
M14 = tested on: M14
K562 = tested on: K562
SNB-19 = tested on: SNB-19
SN12C = tested on: SN12C
XF498 = tested on: XF498
DMS-273 = tested on: DMS-273
IGROV-1 = tested on: IGROV-1
HCT-116 = tested on: HCT-116
HCT-15 = tested on: HCT-15
HOP-92 = tested on: HOP-92
HOP-62 = tested on: HOP-62
CAKI-1 = tested on: CAKI-1
LXFL 529 = tested on: LXFL 529
UACC-257 = tested on: UACC-257
NCI-H226 = tested on: NCI-H226
OVCAR-5 = tested on: OVCAR-5
HCC 2998 = tested on: HCC 2998
A549 = tested on: A549
MOLT-4 = tested on: MOLT-4
SF-295 = tested on: SF-295
NCI-H460 = tested on: NCI-H460
SK-MEL-28 = tested on: SK-MEL-28
M19-MEL = tested on: M19-MEL
RXF 393 = tested on: RXF 393
UACC-62 = tested on: UACC-62
DLD-1 = tested on: DLD-1
HL-60 = tested on: HL-60
TK-10 = tested on: TK-10
A498 = tested on: A498
LOX IMVI = tested on: LOX IMVI
NCI-H23 = tested on: NCI-H23
RPMI-8226 = tested on: RPMI-8226
Malme-3M = tested on: Malme-3M
SF-268 = tested on: SF-268
ACHN = tested on: ACHN
SK-MEL-2 = tested on: SK-MEL-2
Hs-578T = tested on: Hs-578T
MDA-MB-231 = tested on: MDA-MB-231
MDA-MB-435 = tested on: MDA-MB-435
MCF7 = tested on: MCF7
NCI/ADR-RES = tested on: NCI/ADR-RES
MDA-N = tested on: MDA-N
NCI-H522 = tested on: NCI-H522
DU-145 = tested on: DU-145
COLO 205 = tested on: COLO 205
PC-3 = tested on: PC-3
U-251 = tested on: U-251
SK-OV-3 = tested on: SK-OV-3

CC1=C(C(=O)Nc2ccccc2C)C(c2ccccc2O)C(C(=O)Nc2ccccc2C)=C(C)N1 was tested, and the GI50 (SW-620) was 33 µM (inactive), the GI50 (DMS-114) was 22 µM (inactive) and the GI50 (SR) was 12.3 µM (inactive). For the same molecule, the GI50 (OVCAR-3) was 17.3 µM (inactive), the GI50 (SF-539) was 17.3 µM (inactive) and the GI50 (SNB-78) was 29.5 µM (inactive). The GI50 (786-0) was 15.3 µM (inactive), the GI50 (SK-MEL-5) was 20 µM (inactive) and the GI50 (EKVX) was 30.8 µM (inactive). The GI50 (OVCAR-4) was 22.2 µM (inactive), the GI50 (KM-20L2) was 20.2 µM (inactive) and the GI50 (CCRF-CEM) was 24.6 µM (inactive). For the same molecule, the GI50 (KM12) was 14.7 µM (inactive), the GI50 (SNB-75) was 24.5 µM (inactive) and the GI50 (OVCAR-8) was 19.8 µM (inactive). The GI50 (HT-29) was 25.7 µM (inactive), the GI50 (UO-31) was 16.8 µM (inactive) and the GI50 (HOP-18) was 17.9 µM (inactive). For the same molecule, the GI50 (M14) was 18.2 µM (inactive), the GI50 (K562) was 25.2 µM (inactive) and the GI50 (SNB-19) was 23.4 µM (inactive). The GI50 (SN12C) was 19.5 µM (inactive), the GI50 (XF498) was 22.3 µM (inactive) and the GI50 (DMS-273) was 17.7 µM (inactive). The GI50 (IGROV-1) was 17.6 µM (inactive), the GI50 (HCT-116) was 18.4 µM (inactive) and the GI50 (HCT-15) was 16 µM. The GI50 (HOP-92) was 51.4 µM (inactive), the GI50 (HOP-62) was 21.1 µM (inactive) and the GI50 (CAKI-1) was 23.4 µM (inactive). For the same molecule, the GI50 (LXFL 529) was 20.1 µM (inactive), the GI50 (UACC-257) was 22 µM (inactive) and the GI50 (NCI-H226) was 23.8 µM (inactive). The GI50 (OVCAR-5) was 30.8 µM (inactive), the GI50 (HCC 2998) was 15.9 µM (inactive) and the GI50 (A549) was 33.7 µM (inactive). The GI50 (MOLT-4) was 27.5 µM (inactive), the GI50 (SF-295) was 18.6 µM (inactive) and the GI50 (NCI-H460) was 17.1 µM (inactive). For the same molecule, the GI50 (SK-MEL-28) was 28 µM (inactive), the GI50 (M19-MEL) was 21 µM (inactive) and the GI50 (RXF 393) was 25.6 µM (inactive). For the same molecule, the GI50 (UACC-62) was 15.8 µM (inactive), the GI50 (DLD-1) was 16.8 µM (inactive) and the GI50 (HL-60) was 21 µM (inactive). The GI50 (TK-10) was 29.2 µM (inactive), the GI50 (A498) was 21.4 µM (inactive) and the GI50 (LOX IMVI) was 18.6 µM (inactive). The GI50 (NCI-H23) was 34.2 µM (inactive), the GI50 (RPMI-8226) was 20.3 µM (inactive) and the GI50 (Malme-3M) was 26.7 µM (inactive). For the same molecule, the GI50 (SF-268) was 33.7 µM (inactive), the GI50 (ACHN) was 22.3 µM (inactive) and the GI50 (SK-MEL-2) was 17.1 µM (inactive).

For O=C1C(Nc2ccc(S(=O)(=O)Nc3cnc4ccccc4n3)cc2)=C/C(=N\c2ccc(S(=O)(=O)Nc3cnc4ccccc4n3)cc2)c2ccccc21, the GI50 (SW-620) was 17.5 µM (inactive), the GI50 (DMS-114) was 21.2 µM (inactive) and the GI50 (SR) was 31.4 µM (inactive). The GI50 (OVCAR-3) was 19.8 µM (inactive), the GI50 (SF-539) was 18.9 µM (inactive) and the GI50 (SNB-78) was 22.5 µM (inactive). For the same molecule, the GI50 (Hs-578T) was 37.2 µM (inactive), the GI50 (786-0) was 17.2 µM (inactive) and the GI50 (MDA-MB-231) was 23.1 µM (inactive). The GI50 (SK-MEL-5) was 17.5 µM (inactive), the GI50 (EKVX) was 18.2 µM (inactive) and the GI50 (OVCAR-4) was 20.8 µM (inactive). The GI50 (MDA-MB-435) was 18.9 µM (inactive), the GI50 (KM-20L2) was 17.7 µM (inactive) and the GI50 (CCRF-CEM) was 24 µM (inactive). For the same molecule, the GI50 (KM12) was 16.9 µM (inactive), the GI50 (SNB-75) was 14.6 µM (inactive) and the GI50 (OVCAR-8) was 19.8 µM (inactive). For the same molecule, the GI50 (HT-29) was 20.4 µM (inactive), the GI50 (MCF7) was 19.5 µM (inactive) and the GI50 (UO-31) was 15.6 µM (inactive). The GI50 (HOP-18) was 13.7 µM (inactive), the GI50 (M14) was 18.5 µM (inactive) and the GI50 (K562) was 28.1 µM (inactive). The GI50 (SNB-19) was 15.3 µM (inactive), the GI50 (NCI/ADR-RES) was 44.6 µM (inactive) and the GI50 (SN12C) was 16.7 µM (inactive). The GI50 (MDA-N) was 18.8 µM (inactive), the GI50 (XF498) was 25.5 µM (inactive) and the GI50 (DMS-273) was 12 µM (inactive). The GI50 (NCI-H522) was 16.8 µM (inactive), the GI50 (IGROV-1) was 19.1 µM (inactive) and the GI50 (HCT-116) was 18.3 µM (inactive). For the same molecule, the GI50 (HCT-15) was 18.4 µM, the GI50 (HOP-92) was 15 µM (inactive) and the GI50 (HOP-62) was 18.3 µM (inactive). The GI50 (CAKI-1) was 16.4 µM (inactive), the GI50 (LXFL 529) was 15.2 µM (inactive) and the GI50 (UACC-257) was 37.7 µM (inactive). The GI50 (DU-145) was 16.9 µM (inactive), the GI50 (NCI-H226) was 20.6 µM (inactive) and the GI50 (OVCAR-5) was 16.3 µM (inactive). The GI50 (HCC 2998) was 17.5 µM (inactive), the GI50 (A549) was 19.7 µM (inactive) and the GI50 (MOLT-4) was 25 µM (inactive). The GI50 (SF-295) was 16.3 µM (inactive), the GI50 (COLO 205) was 18.5 µM (inactive) and the GI50 (NCI-H460) was 16.7 µM (inactive). For the same molecule, the GI50 (SK-MEL-28) was 18.1 µM (inactive), the GI50 (M19-MEL) was 16.6 µM (inactive) and the GI50 (RXF 393) was 17.7 µM (inactive). For the same molecule, the GI50 (UACC-62) was 18.2 µM (inactive), the GI50 (DLD-1) was 17.9 µM (inactive) and the GI50 (PC-3) was 20.5 µM (inactive). The GI50 (HL-60) was 27.9 µM (inactive), the GI50 (TK-10) was 30.7 µM (inactive) and the GI50 (A498) was 15.3 µM (inactive). The GI50 (U-251) was 19.1 µM (inactive), the GI50 (LOX IMVI) was 16.2 µM (inactive) and the GI50 (NCI-H23) was 18.7 µM (inactive). For the same molecule, the GI50 (RPMI-8226) was 27.9 µM (inactive), the GI50 (Malme-3M) was 17.9 µM (inactive) and the GI50 (SF-268) was 20 µM (inactive). The GI50 (ACHN) was 30.7 µM (inactive), the GI50 (SK-MEL-2) was 17.9 µM (inactive) and the GI50 (SK-OV-3) was 17.2 µM (inactive).
